Reference: patent US20100190846A1, “MICROBICIDAL AGENT AND MICROBICIDAL COMPOSITION” (priority 2006, published 2010)
≈ marks a conversion by molar mass, not a printed value.

How the values were obtained:
Experiment in all cases: Agar dilution method microbicidal test
Assay type in all cases: cell-based
Vibrio parahaemolyticus = system: Vibrio parahaemolyticus; as to Growth on agar plate: key: +: grew; −: did not grow
Method: (§1) As microbicidal test method for trans-p-coumaric acid, 3-hydroxypyridine, p-hydroxybenzaldehyde and vanillin, the agar dilution method was employed.
(§2) In agar dilution method, a solution in which a sample is dissolved is serially diluted several times, and each of the diluted sample solutions is mixed with agar medium to prepare plate agars having various sample concentration. Then bacteria is inoculated onto the plate agars. In cases where the sample has a microbicidal activity, the growth of the bacteria on the plates can be inhibited. The lowest concentration which can inhibit the growth of the bacteria is referred to as Minimum Inhibitory Concentration (MIC), thereby judging the degree of a microbicidal activity of the sample.
(§3) First, 400 mg of sample was dissolved in 1 mL of DMSO to prepare 400 mg/mL sample solution. Then 0.5 mL of this 400 mg/mL sample solution was diluted 2-fold to prepare 200 mg/mL sample solution. In the same manner, sample solutions of 100 mg/mL, 50.0 mg/mL, and 25.0 mg/mL were prepared. In addition, 300 mg/mL sample solution was prepared. Thereafter, 0.2 mL of these sample solutions each was mixed with 19.8 mL of BHI (Brain Heart Infusion Agar, Becton Dickinson, MD) medium, thereby preparing agar plates having the sample concentration of 4.0 mg/mL, 3.0 mg/mL, 2.0 mg/mL, 1.0 mg/mL, 0.5 mg/mL, and 0.25 mg/mL in dishes. […] Sterilized water was used for dissolving catechin, because catechin was insoluble in DMSO.
(§4) As test bacteria, 13 kinds of bacteria, i.e., Streptococcus pneumoniae, Streptococcus pyogenes, Enterococcus faecalis, Staphylococcus aureus, Escherichia coli, Salmonella sp., Yersinia enterocolitica, Vibrio parahaemolyticus, Pseudomonas aeruginosa, Bacillus cereus, Bacillus subtilis MB-32, Bacillus subtilis ATCC6633, and Candida sp., were used. These bacteria each was mixed with 2 mL of sterilized MHB^R liquid medium (Mueller Hinton Broth^R, Becton Dickinson, MD) to prepare bacterial suspension having turbidity 1 (bacterial concentration 10^8/mL). Previously, small test tubes were set into each cell of a grating and sterilized, and 1 mL of 13 bacterial suspensions were added into the small test tubes set in the grating, respectively. By using a microplanter (SAKUMA, model: MIT-P), 10 μL aliquot was collected from each test tube set in the grating and transferred to other test tube, and the transferred bacterial suspensions were diluted 100-fold (bacterial concentration 10^6/mL).
(§5) By using the microplanter, 10 μL (bacterial number […]) of this bacterial suspension was inoculated onto the plates containing the sample solution of various concentrations. The plates were incubated for 18 hours in an incubator at 37° C., and then a microbicidal activity of each compound was assessed.

Streptococcus pneumoniae = system: Streptococcus pneumoniae; as to Growth on agar plate: key: +: grew; −: did not grow
Method: as §1, §2, §3, §4, §5

Staphylococcus aureus = system: Staphylococcus aureus; as to Growth on agar plate: key: +: grew; −: did not grow
Method: as §1, §2, §3, §4, §5

Streptococcus pyogenes = system: Streptococcus pyogenes; as to Growth on agar plate: key: +: grew; −: did not grow
Method: as §1, §2, §3, §4, §5

Bacillus cereus = system: Bacillus cereus; as to Growth on agar plate: key: +: grew; −: did not grow
Method: as §1, §2, §3, §4, §5

Enterococcus faecalis = system: Enterococcus faecalis; also: key: +: grew; −: did not grow
Method: as §1, §2, §3, §4, §5

Salmonella sp. = system: Salmonella sp. Also: key: +: grew; −: did not grow.
Method: as §1, §2, §3, §4, §5

Bacillus subtilis MB-32 = system: Bacillus subtilis MB-32; also: key: +: grew; −: did not grow
Method: as §1, §2, §3, §4, §5

Candida sp. = system: Candida sp. As to Growth on agar plate: key: +: grew; −: did not grow.
Method: as §1, §2, §3, §4, §5

Escherichia coli = system: Escherichia coli; also: key: +: grew; −: did not grow
Method: as §1, §2, §3, §4, §5

Pseudomonas aeruginosa = system: Pseudomonas aeruginosa; also: key: +: grew; −: did not grow
Method: as §1, §2, §3, §4, §5

Yersinia enterocolitica = system: Yersinia enterocolitica; as to Growth on agar plate: key: +: grew; −: did not grow
Method: as §1, §2, §3, §4, §5

[1] = system: Bacillus subtilis ATCC6633; as to Growth on agar plate: key: +: grew; −: did not grow
Method: as §1, §2, §3, §4, §5

[2] = BHI agar, 37° C., 18 hours, read-out: MIC

## O=C(O)/C=C/c1ccc(O)cc1 [trans-p-Coumaric Acid, trans-p-coumaric acid]
Vibrio parahaemolyticus
  activity (in words): had an activity
Vibrio parahaemolyticus; 0.25 mg/mL
  Growth on agar plate: +
Vibrio parahaemolyticus; 0.5 mg/mL
  Growth on agar plate: +
Vibrio parahaemolyticus; 1.0 mg/mL
  Growth on agar plate: +
Vibrio parahaemolyticus; 2.0 mg/mL
  Growth on agar plate: +
Vibrio parahaemolyticus; 3.0 mg/mL
  Growth on agar plate: −
Vibrio parahaemolyticus; 4.0 mg/mL
  Growth on agar plate: −
Vibrio parahaemolyticus; [2]
  MIC: 3000 µg/mL (≈ 18.3 mM)
Streptococcus pneumoniae
  activity (in words): had an activity
Streptococcus pneumoniae; 0.25 mg/mL
  Growth on agar plate: +
Streptococcus pneumoniae; 0.5 mg/mL
  Growth on agar plate: +
Streptococcus pneumoniae; 1.0 mg/mL
  Growth on agar plate: +
Streptococcus pneumoniae; 2.0 mg/mL
  Growth on agar plate: −
Streptococcus pneumoniae; 3.0 mg/mL
  Growth on agar plate: −
Streptococcus pneumoniae; 4.0 mg/mL
  Growth on agar plate: −
Streptococcus pneumoniae; [2]
  MIC: 2000 µg/mL (≈ 12.2 mM)
Staphylococcus aureus
  activity (in words): had an activity
Staphylococcus aureus; 0.25 mg/mL
  Growth on agar plate: +
Staphylococcus aureus; 0.5 mg/mL
  Growth on agar plate: +
Staphylococcus aureus; 1.0 mg/mL
  Growth on agar plate: +
Staphylococcus aureus; 2.0 mg/mL
  Growth on agar plate: +
Staphylococcus aureus; 3.0 mg/mL
  Growth on agar plate: +
Staphylococcus aureus; 4.0 mg/mL
  Growth on agar plate: −
Staphylococcus aureus; [2]
  MIC: 4000 µg/mL (≈ 24.4 mM)
Streptococcus pyogenes
  activity (in words): had an activity
Streptococcus pyogenes; 0.25 mg/mL
  Growth on agar plate: +
Streptococcus pyogenes; 0.5 mg/mL
  Growth on agar plate: +
Streptococcus pyogenes; 1.0 mg/mL
  Growth on agar plate: +
Streptococcus pyogenes; 2.0 mg/mL
  Growth on agar plate: +
Streptococcus pyogenes; 3.0 mg/mL
  Growth on agar plate: −
Streptococcus pyogenes; 4.0 mg/mL
  Growth on agar plate: −
Streptococcus pyogenes; [2]
  MIC: 3000 µg/mL (≈ 18.3 mM)
Bacillus cereus
  activity (in words): had an activity
Bacillus cereus; 0.25 mg/mL
  Growth on agar plate: +
Bacillus cereus; 0.5 mg/mL
  Growth on agar plate: +
Bacillus cereus; 1.0 mg/mL
  Growth on agar plate: +
Bacillus cereus; 2.0 mg/mL
  Growth on agar plate: +
Bacillus cereus; 3.0 mg/mL
  Growth on agar plate: −
Bacillus cereus; 4.0 mg/mL
  Growth on agar plate: −
Bacillus cereus; [2]
  MIC: 3000 µg/mL (≈ 18.3 mM)
Enterococcus faecalis; 0.25 mg/mL
  Growth on agar plate: +
Enterococcus faecalis; 0.5 mg/mL
  Growth on agar plate: +
Enterococcus faecalis; 1.0 mg/mL
  Growth on agar plate: +
Enterococcus faecalis; 2.0 mg/mL
  Growth on agar plate: +
Enterococcus faecalis; 3.0 mg/mL
  Growth on agar plate: +
Enterococcus faecalis; 4.0 mg/mL
  Growth on agar plate: +
Salmonella sp.; 0.25 mg/mL
  Growth on agar plate: +
Salmonella sp.; 0.5 mg/mL
  Growth on agar plate: +
Salmonella sp.; 1.0 mg/mL
  Growth on agar plate: +
Salmonella sp.; 2.0 mg/mL
  Growth on agar plate: +
Salmonella sp.; 3.0 mg/mL
  Growth on agar plate: +
Salmonella sp.; 4.0 mg/mL
  Growth on agar plate: +
Bacillus subtilis MB-32; 0.25 mg/mL
  Growth on agar plate: +
Bacillus subtilis MB-32; 0.5 mg/mL
  Growth on agar plate: +
Bacillus subtilis MB-32; 1.0 mg/mL
  Growth on agar plate: +
Bacillus subtilis MB-32; 2.0 mg/mL
  Growth on agar plate: +
Bacillus subtilis MB-32; 3.0 mg/mL
  Growth on agar plate: +
Bacillus subtilis MB-32; 4.0 mg/mL
  Growth on agar plate: +
Candida sp.
  activity (in words): had an activity
Candida sp.; 0.25 mg/mL
  Growth on agar plate: +
Candida sp.; 0.5 mg/mL
  Growth on agar plate: +
Candida sp.; 1.0 mg/mL
  Growth on agar plate: +
Candida sp.; 2.0 mg/mL
  Growth on agar plate: +
Candida sp.; 3.0 mg/mL
  Growth on agar plate: −
Candida sp.; 4.0 mg/mL
  Growth on agar plate: −
Candida sp.; [2]
  MIC: 3000 µg/mL (≈ 18.3 mM)
Escherichia coli; 0.25 mg/mL
  Growth on agar plate: +
Escherichia coli; 0.5 mg/mL
  Growth on agar plate: +
Escherichia coli; 1.0 mg/mL
  Growth on agar plate: +
Escherichia coli; 2.0 mg/mL
  Growth on agar plate: +
Escherichia coli; 3.0 mg/mL
  Growth on agar plate: +
Escherichia coli; 4.0 mg/mL
  Growth on agar plate: +
Pseudomonas aeruginosa; 0.25 mg/mL
  Growth on agar plate: +
Pseudomonas aeruginosa; 0.5 mg/mL
  Growth on agar plate: +
Pseudomonas aeruginosa; 1.0 mg/mL
  Growth on agar plate: +
Pseudomonas aeruginosa; 2.0 mg/mL
  Growth on agar plate: +
Pseudomonas aeruginosa; 3.0 mg/mL
  Growth on agar plate: +
Pseudomonas aeruginosa; 4.0 mg/mL
  Growth on agar plate: +
Yersinia enterocolitica
  activity (in words): had an activity
Yersinia enterocolitica; 0.25 mg/mL
  Growth on agar plate: +
Yersinia enterocolitica; 0.5 mg/mL
  Growth on agar plate: +
Yersinia enterocolitica; 1.0 mg/mL
  Growth on agar plate: +
Yersinia enterocolitica; 2.0 mg/mL
  Growth on agar plate: +
Yersinia enterocolitica; 3.0 mg/mL
  Growth on agar plate: +
Yersinia enterocolitica; 4.0 mg/mL
  Growth on agar plate: −
Yersinia enterocolitica; [2]
  MIC: 4000 µg/mL (≈ 24.4 mM)
[1]; ATCC6633, Bacillus subtilis ATCC 6633, BHI agar, 37° C., 18 hours, read-out: MIC
  MIC: 3000 µg/mL (≈ 18.3 mM)
[1]; Bacillus subtilis ATCC6633
  activity (in words): had an activity
[1]; Bacillus subtilis ATCC 6633, 0.25 mg/mL
  Growth on agar plate: +
[1]; Bacillus subtilis ATCC 6633, 0.5 mg/mL
  Growth on agar plate: +
[1]; Bacillus subtilis ATCC 6633, 1.0 mg/mL
  Growth on agar plate: +
[1]; Bacillus subtilis ATCC 6633, 2.0 mg/mL
  Growth on agar plate: +
[1]; Bacillus subtilis ATCC 6633, 3.0 mg/mL
  Growth on agar plate: −
[1]; Bacillus subtilis ATCC 6633, 4.0 mg/mL
  Growth on agar plate: −
